Patent publication US20060251654A1, “Method for treatment of malignant and infectious chronic diseases” (Centro de Inmunologia Molecular, priority 2001, published 2006)

Tested on: syngeneic tumor 3LL-D122
Assay: Survival of mice bearing 3LL-D122 tumor after surgery of the primary tumor (Examples 5 and 6)
Assay type: in vivo, C57BL/6 mice
Settings: EGF-p64 vaccine i.m., two weeks later Cyclophosphamide 50 mg/kg i.v., three days later second vaccine dose; versus vaccine plus saline or Cyclophosphamide only
Procedure: C57BL/6 mice were injected with the syngeneic tumor 3LL-D122 (200,000 cells/animal) in the right plantar pad. The evolution of the tumor was evaluated by measurement of its diameters every 3 days and surgery of the primary tumor was practiced (amputation) when it reached 8-9 mm of diameter. Mice survival, which is depended of spontaneous lung metastases was measured.
Two days after the inoculation of the tumor mice were injected by intramuscular route with a vaccine that contains 4 μg of human EGF conjugated to the p64 protein (EGF-p64) in Montanide ISA 51 (100 μl final volume) and two weeks later they were treated with 50 mg/kg of Cyclophosphamide by intravenous route or with saline solution. After three days, the mice were re-immunized by intramuscular route with a second dose of the EGF-p64 vaccine.
An animal group just was treated by intravenous route with 50 mg/kg of Cyclophosphamide and another one was not treated.
C57BL/6 mice were injected with the syngenic tumor 3LL-D122 as it is described in Example 5.
Two days after to the inoculation of the tumor, mice were injected by intramuscular route with a vaccine that contains 4 μg of human EGF conjugated to the P64 protein (EGF-p64) in Montanide ISA 51 (100 μl final volume) and two weeks later they were treated with 1 mg of anti-CD25 monoclonal antibody by intravenous route or with saline solution as control. […]

O=P1(N(CCCl)CCCl)NCCCO1 (stereo not shown) [Cyclophosphamide]
mice survival: increases the mice survival
